Legend:
[1] = tested on: loblolly pine embryogenic cell lines (J and K); test: Effect of brassinolide in post cryostorage recovery medium on embryo production and embryo production potential; format: cell-based; conditions: 0.1 μM in high casein Mi3
Experimental: Five J cell lines and five K lines were tested. For each cell line, 4 vials (2 post-cryo recovery media×2 replications) were retrieved from cryostorage. Recovered tissue from each vial was transferred to their respective fresh medium at 2 week intervals using a raft transfer method. Weight data was recorded for tissue derived from each vial at the 6th week after cryo-retrieval. At the 6th week, tissues from both reps of each treatment were pooled and maintained on their respective maintenance medium using a tissue dispersion method: 200 mg per sample in 1 ml liquid Mi3 medium dispersed by agitation and poured onto each culture plate. A total of 800 mg of tissue from each cell line×post-cryo media combination were plated on embryo development medium (4 reps of 200 mg/plate) to test embryo production capacity. Total tissue weight at each subculture was recorded to calculate the potential of each treatment for tissue bulk up and embryo production. Harvestable somatic embryos from each plate were recorded at 9 weeks of incubation on MSG embryo development medium (Tables 1 and 2). Embryo production data was analyzed separately for the J and K cell lines using PROCGLM procedure of SAS. Embryo production potential for each treatment was calculated by multiplying embryo production data by the total potential tissue produced in each cell line and treatment. The effect of brassinolide in the improved Mi3 bulk up medium on subsequent embryo production was tested. […] Since cell line×media treatment interaction was highly significant, data from each line was analyzed separately for each treatment.

[2] = tested on: loblolly pine embryogenic cell lines (J and K); test: Effect of brassinolide in post cryostorage recovery medium on tissue production; format: cell-based; conditions: 0.1 μM in high casein Mi3
From the text: This experiment addresses whether brassinolide in the post-cryogenic storage bulk up medium has a positive effect on tissue recovery and growth enabling faster tissue multiplication and bulk up; and whether there is a cell-line-by-treatment (with or without brassinolide) interaction that can be exploited to enable genotype screening to optimize the best combination for each cell line in terms of both tissue growth and subsequent somatic embryo production. Two post-cryostrorage recovery (bulk up) media treatments were tested: Treatment #1: Mi3 medium (Tables 1 and 2) with high (2.0 g/liter) casein (the improved medium) Treatment #2: The same high casein Mi3 with addition of 0.1 μM Brassinolide Five J cell lines and five K lines were tested. For each cell line, 4 vials (2 post-cryo recovery media×2 replications) were retrieved from cryostorage. Recovered tissue from each vial was transferred to their respective fresh medium at 2 week intervals using a raft transfer method. Weight data was recorded for tissue derived from each vial at the 6th week after cryo-retrieval. At the 6th week, tissues from both reps of each treatment were pooled and maintained on their respective maintenance medium using a tissue dispersion method: 200 mg per sample in 1 ml liquid Mi3 medium dispersed by agitation and poured onto each culture plate. A total of 800 mg of tissue from each cell line×post-cryo media combination were plated on embryo development medium (4 reps of 200 mg/plate) to test embryo production capacity. Total tissue weight at each subculture was recorded to calculate the potential of each treatment for tissue bulk up and embryo production. Harvestable somatic embryos from each plate were recorded at 9 weeks of incubation on MSG embryo development medium (Tables 1 and 2). Embryo production data was analyzed separately for the J and K cell lines using PROCGLM procedure of SAS. Embryo production potential for each treatment was calculated by multiplying embryo production data by the total potential tissue produced in each cell line and treatment.

CC(C)[C@H](C)[C@@H](O)[C@H](O)[C@@H](C)[C@H]1CC[C@H]2[C@@H]3COC(=O)[C@H]4C[C@H](O)[C@H](O)C[C@]4(C)[C@H]3CC[C@]12C [brassinolide, Brassinolide]
embryo production potential compared to the improved Mi3 without brassinolide ([1]; J cell lines): 149%
embryo production potential compared to the improved Mi3 without brassinolide ([1]; K cell lines): 136%
embryo production potential, higher compared to the control ([1]; both J and K lines): > 35%
amount of tissue compared to the improved medium without brassinolide ([2]; J lines): 127%
amount of tissue compared to the improved medium without brassinolide ([2]; K lines): 191%
tissue production ([2]; all 10 cell lines): produced highest amount of tissue
increase in growth ([2]; slow-recovering cell lines K10, K11 and J4): two to three-fold
